Data as given in publication PMC4249368 (Antimicrobial Agents and Chemotherapy, 2014).
Where two headings read alike, the source gives them in different places. No end group written: not given here.

Experiments:
MSSA ATCC 25923 [1] = test system: MSSA ATCC 25923
Description: MSSA ATCC 25923 was purchased from the American Type Culture Collection (Manassas, VA). Mueller-Hinton broth (MHB; Bacto Laboratories Pty. Ltd.) was used to grow MSSA for determination of in vitro antibacterial activity in the presence and absence of 50% human serum (Life Technologies Australia, Melbourne, Australia) and time-kill assays. Luria-Bertani (LB) medium (Difco) and MHB adjusted with Ca^2+ (25 mg/liter) and Mg^2+ (12.5 mg/liter) (CA-MHB) were used for bacterial growth in the membrane depolarization assay and TEM, respectively. The phospholipids used for SPR analysis, 1-palmitoyl-2-oleoyl-sn-glycero-3-phosphoglycerol (POPG), 1-palmitoyl-2-oleoyl-sn-glycero-3-phosphocholine (POPC), and 1-palmitoyl-2-oleoyl-sn-glycero-3-phosphoethanolamine (POPE), were purchased from Auspep Pty. Ltd. (Melbourne, Australia).
MICs against MSSA ATCC 25923 were measured by broth microdilution according to the Clinical and Laboratory Standards Institute (CLSI) M7-A7 methodology ([30]). Briefly, serial 2-fold dilutions of each antibiotic were added into Costar nontreated polystyrene 96-well plates, and each well was inoculated with 50 μl of MSSA in MHB to a final concentration of approximately 5 × 10^5 CFU/ml. […] The dilution representing the MIC and two of the more and less concentrated dilutions were plated out onto Trypticase soy agar plates and enumerated to determine viable CFU/ml ([31]).

[2] = SPR binding to lipid bilayers on Biacore L1 chip; conditions: 10 μM, normalized to molecular weight and RULipid, Fig. 3B, n = 3
Description: Lipid stock solutions were prepared in chloroform and mixed at the described mass composition of POPC, POPC/POPG (8:2, wt/wt) and POPC/POPE (8:2, wt/wt) ([33]), and the chloroform was evaporated as previously described ([34]). The lipids were resuspended in 1 ml of filtered (0.22-μm pore size) running buffer (phosphate-buffered saline [PBS]; pH 7.3) and then sonicated for 25 min in 5-min intervals. Small unilamellar vesicles (SUVs) were prepared by extrusion through a polycarbonate filter with a 50-nm pore diameter ([35]).
SPR experiments were carried out with a Biacore T200 system (GE Health, Australia) using a Biacore vesicle capture (L1) sensor chip, which has lipophilic groups covalently attached to carboxymethylated dextran that facilitates direct lipid bilayer deposition ([34], [36]). All measurements were undertaken at a temperature of 25°C to maintain the lipid bilayer fluidity ([34]). SUVs at a total lipid concentration of 0.5 mg/ml were immediately passed across the chip surface for 60 min at a low flow rate of 2 μl/min, following three 30-s injections of 20 mM 3-cholamidopropyl-dimethylammonio-1-propane sulfonate (CHAPS) solution at a high flow rate of 30 μl/min to completely remove the captured vesicles from the sensor chip. To remove any multilamellar structures from the lipid surface and to stabilize the baseline, 10 mM NaOH was injected for 1 min at 50 μl/min. The coverage extent of the surface was later determined by a 5-min injection of 0.1 mg/ml bovine serum albumin (BSA) at a flow rate of 10 μl/min.
The antibiotics were serially diluted in running buffer and then injected sequentially from the lowest (0.01 μM) to the highest (10 μM) concentration at a flow rate of 20 μl/min for 180 s, followed by a dissociation of 300 s and a 1-min regeneration with 10 mM HCl at a flow rate of 10 μl/min. SPR experiments were performed in triplicate. The actual amount of antibiotic bound to each lipid bilayer was corrected by subtraction of the bulk refractive index difference (buffer control) and then normalized by dividing the antibiotic-bound resonance units (RUBound) obtained in the SPR sensorgrams (see Fig. 3A, below) by the corresponding antibiotic molecular weight and the resonance units of the individual lipid vesicle captured on the chip surface (RULipid) (see Fig. S1 in the supplemental material) by using the following equation: normalized antibiotic bound = (10^3 × RUBound)/(molecular weight × RULipid). Normalization against molecular weight and RULipid was necessary, as SPR units are mass dependent and RULipid values vary according to lipid type ([37]).

MSSA ATCC 25923 [3] = assay: Membrane depolarization assay with DiSC3(5); assay type: cell-based, Staphylococcus aureus; conditions: 30 min treatment; for membrane depolarization (result in words): 0.1 to 30 μM, Fig. 4, n = 3
Description: Antibiotic-induced bacterial cytoplasmic membrane depolarization was determined by using the fluorescent dye 3,3-dipropylthiacarbocyanine [DiSC3(5); Sigma-Aldrich, Australia] as previously described ([38]) with a high-throughput modification. Briefly, mid-logarithmic-phase MSSA ATCC 25923 cells were collected by centrifugation (5,000 × rpm, 10 min), washed once and diluted to approximately 5 × 10^7 CFU/ml in buffer (5 mM HEPES, 5 mM glucose; pH 7.2). The cell suspension was incubated with 0.4 μM DiSC3(5) until dye uptake was maximal, as indicated by a stable reduction in fluorescence of assay medium. KCl at 100 mM was added to equilibrate the cytoplasmic and external K^+ concentrations. A 90-μl aliquot of cell suspension was transferred into an Optiplate 96-well white microplate (PerkinElmer Corp., Australia), and 10 μl of antibiotic was added, to yield a series of solutions ranging from 0.1 to 30 μM. A blank with only cell suspension and dye was used for background subtraction. The fluorescence intensity was monitored in real time by using a BMG Labtech PolarStar Omega multimode reader fitted with 620-10 and 665-10 excitation and emission filters, respectively, at an excitation wavelength of 622 nm and an emission wavelength of 670 nm. The membrane depolarization assays were performed in triplicate, and the fluorescence leakage (FL) was defined by the following equation: FL = (FF − FB) − (FI − FB). Here, FF was the final fluorescence intensity in assay medium after 30 min of treatment with antibiotic, FI was the initial fluorescence intensity of the cell suspension, and FB was the fluorescence intensity of the blank.

[4] = parameters: method as in PMID 23872123, PMID 9791177, PMID 16531990; conditions: Lipid II pyrophosphate moiety; cited from earlier work
[5] = parameters: method as in PMID 23872123, PMID 9791177, PMID 16531990; conditions: phospholipid bilayers; cited from earlier work
MSSA ATCC 25923 [6] = test system: MSSA ATCC 25923; remark: listed apart in the source
Description: MICs against MSSA ATCC 25923 were measured by broth microdilution according to the Clinical and Laboratory Standards Institute (CLSI) M7-A7 methodology ([30]). Briefly, serial 2-fold dilutions of each antibiotic were added into Costar nontreated polystyrene 96-well plates, and each well was inoculated with 50 μl of MSSA in MHB to a final concentration of approximately 5 × 10^5 CFU/ml. […] The dilution representing the MIC and two of the more and less concentrated dilutions were plated out onto Trypticase soy agar plates and enumerated to determine viable CFU/ml ([31]). […]
25923 in MHB media in the presence and absence of Human serum (10% and 50%) in
Corning NonTC microtitre plates (CLS3370)
a The MBCs were determined by plating out the clear wells onto an agar plate and were incubated at
37°C overnight. Each colony represents one viable bacterium. […]

[7] = MHB, broth microdilution CLSI M7-A7, ~5 × 10^5 CFU/ml, 24 h, 37°C, Costar nontreated polystyrene 96-well plates

Substance | MIC (MSSA ATCC 25923 [1]; ATCC 25923, 24 h) [µg/mL] | normalized antibiotic bound to the three lipid bilayers (result in words) [2] | membrane depolarization (result in words) (MSSA ATCC 25923 [3]) | concentration at which membrane depolarization occurs (MSSA ATCC 25923 [3]; DiSC3(5), normalized to citropin 1.1 at 10 μM, ramoplanin 3× MIC gives similar extent as […] MIC nisin) [× MIC] | Kd [4] [µM] | MIC (MSSA ATCC 25923 [1]; [7]) [µg/mL] | Kd [5] [µM] | MBC, 10% Human serum (MSSA ATCC 25923 [6]; Table S1, MHB with 10% human serum) [µg/mL] | MBC, 50% Human serum (MSSA ATCC 25923 [6]; Table S1, MHB with 50% human serum) [µg/mL] | MBC, MHB (MSSA ATCC 25923 [6]; Table S1, MHB without serum, clear wells plated onto agar, 37°C overnight) [µg/mL] | MIC, MHB (MSSA ATCC 25923 [1]; Table S1, MHB without serum, Corning NonTC microtitre plates (CLS3370)) [µg/mL]
GLFDVIKKVASVIGGL-NH2 [citropin 1.1] | 32 |  |  |  |  |  |  |  |  |  | 
nisin |  | no binding to either anionic or zwitterionic phospholipid bilayers | dramatic membrane depolarization at the MIC and above | 0.25 | 0.01 | 32 | 100 |  |  |  | 
teicoplanin |  | bound preferentially to the anionic membrane over zwitterionic membranes | measurable but minor fluorescence leakage at concentrations significantly higher than the MIC |  |  | 1 |  | 0.25 | 0.5 | 4 | 2
